Test results published in patent US20200010482A1, “INHIBITORS OF BETA SECRETASE” (Janssen Pharmaceutica NV, priority 2017, published 2020).

Experiments:
BACE1 = target: T1, BACE1 (Homo sapiens, UniProt P56817); test: BACE1 biochemical FRET based assay; conditions: recombinant BACE1 0.04 μg/ml, 20 μM substrate, 450 min, pH 5.0; for IC50: read-out: BIOCHEMICAL FRET BASED ASSAY pIC50 (converted)
T1 construct: recombinant BACE1 protein in a final concentration of 0.04 μg/ml
Method in brief: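 Recombinant BACE1 (0.04 μg/ml final) incubated 450 min at room temperature with 20 μM Mca/Dnp-labelled 13-mer Swedish APP peptide in 50 mM citrate pH 5.0, 0.05% PEG. Fluorescence (ex 320/em 405 nm) at 450 min minus early baseline Tx; IC50 fitted from % Controlmin versus concentration.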

[1] = tested on: Abeta 1-42 produced and secreted by SKNBE2 cells expressing hAPP695; test: Cellular αLisa assay in SKNBE2 cells, Abeta 1-42; type: cell-based, human; conditions: SKNBE2 cells expressing hAPP695, 18 hours incubation; for IC50: Homo sapiens, SKNBE2, 18 h, read-out: CELLULAR αLISA ASSAY IN SKNBE2 CELLS ABETA 42 PIC50 (converted)
Method in brief: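 Human neuroblastoma SKNBE2 cells expressing wild-type hAPP695 treated with compound for 18 h; secreted Abeta total or Abeta 1-42 in medium measured by sandwich αLisa (AbN/25 with Ab4G8 or cAb42/26), read after 1 h. IC50 from least-squares fit of % Controlmin, normalised to untreated and no-antibody controls.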

BACE2 = target: T2, BACE2 (Homo sapiens, UniProt Q9Y5Z0); test: BACE2 biochemical FRET based assay; conditions: recombinant BACE2 0.4 μg/ml, 10 μM substrate, 450 min, pH 5.0; for IC50: read-out: BIOCHEMICAL FRET BASED ASSAY pIC50 (converted)
T2 construct: recombinant BACE2 protein in a final concentration of 0.4 μg/ml
T2 sequence (Q9Y5Z0 63-518): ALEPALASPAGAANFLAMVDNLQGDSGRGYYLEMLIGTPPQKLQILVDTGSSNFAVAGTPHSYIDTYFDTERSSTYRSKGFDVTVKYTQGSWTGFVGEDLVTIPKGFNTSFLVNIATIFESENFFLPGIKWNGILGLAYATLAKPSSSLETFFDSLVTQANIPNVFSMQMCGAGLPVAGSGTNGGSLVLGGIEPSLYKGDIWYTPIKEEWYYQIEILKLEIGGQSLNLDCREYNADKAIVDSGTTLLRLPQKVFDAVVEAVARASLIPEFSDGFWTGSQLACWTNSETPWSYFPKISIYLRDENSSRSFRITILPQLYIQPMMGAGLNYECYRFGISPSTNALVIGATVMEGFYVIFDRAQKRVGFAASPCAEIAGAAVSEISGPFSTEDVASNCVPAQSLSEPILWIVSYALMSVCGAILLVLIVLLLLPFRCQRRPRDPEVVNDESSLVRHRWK
Method in brief: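 Recombinant enzyme (0.4 μg/ml final) incubated 450 min at room temperature with 10 μM Mca/Dnp-quenched Swedish-mutant APP peptide in 50 mM citrate pH 5.0, 0.05% PEG, no DMSO. Fluorescence (ex 320/em 405 nm) change from T0 to T450 normalised to no-enzyme and enzyme controls; IC50 from least-squares curve fit.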

T1 sequence (P56817 46-501): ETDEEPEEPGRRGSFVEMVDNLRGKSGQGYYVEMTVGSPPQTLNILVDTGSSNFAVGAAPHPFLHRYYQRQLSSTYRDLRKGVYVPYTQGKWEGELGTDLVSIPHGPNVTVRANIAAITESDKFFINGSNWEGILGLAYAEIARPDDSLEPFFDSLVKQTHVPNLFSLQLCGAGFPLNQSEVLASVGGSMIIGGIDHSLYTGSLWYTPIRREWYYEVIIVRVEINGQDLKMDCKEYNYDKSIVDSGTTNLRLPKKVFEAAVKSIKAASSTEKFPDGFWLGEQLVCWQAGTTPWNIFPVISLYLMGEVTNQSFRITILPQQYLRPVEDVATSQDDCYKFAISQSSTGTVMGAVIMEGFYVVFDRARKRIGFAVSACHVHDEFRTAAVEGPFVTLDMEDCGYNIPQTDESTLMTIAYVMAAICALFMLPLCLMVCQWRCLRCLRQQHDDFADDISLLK

Structure (SMILES): COc1ncc(C#N)c2c1C[C@]1(c3ccccc3F)N=C(N)SC[C@@H]1C2 (racemic) [Compound 22]
- IC50 (BACE1): 178 nM
- IC50 [1]: 41.7 nM
- IC50 (BACE2): 240 nM

Structure (SMILES): COc1ncc(-c2ccccc2C)c2c1C[C@]1(c3ccc(F)cc3F)N=C(N)SC[C@@H]1C2 [Compound 55]
- BIOCHEMICAL FRET BASED ASSAY pIC50 (BACE1): 8.45
- CELLULAR αLISA ASSAY IN SKNBE2 CELLS ABETA 42 PIC50 [1]: 7.99
- BIOCHEMICAL FRET BASED ASSAY pIC50 (BACE2): 7.4

Structure (SMILES): COC/C=C/c1cnc(OC)c2c1C[C@H]1CSC(N)=N[C@@]1(c1ccc(F)cc1F)C2 [Compound 47]
- IC50 (BACE1): 10.2 nM
- IC50 [1]: 5.62 nM
- IC50 (BACE2): 6.61 nM

Structure (SMILES): COc1cc(C)c(-c2cnc(OC)c3c2C[C@H]2CSC(N)=N[C@@]2(c2ccc(F)cc2F)C3)cn1 [Compound 106]
- IC50 (BACE1): 8.71 nM
- IC50 [1]: 5.89 nM
- IC50 (BACE2): 195 nM

Structure (SMILES): COc1ncc(-c2cc(Cl)ccc2C)c2c1C[C@]1(c3ccc(F)cc3F)N=C(N)SC[C@@H]1C2 [Compound 60]
- BIOCHEMICAL FRET BASED ASSAY pIC50 (BACE1): 8.26
- CELLULAR αLISA ASSAY IN SKNBE2 CELLS ABETA 42 PIC50 [1]: 7.25
- BIOCHEMICAL FRET BASED ASSAY pIC50 (BACE2): 6.9

Structure (SMILES): COc1ncc(-c2ccccc2)c2c1C[C@]1(c3ccc(F)cc3F)N=C(N)SC[C@@H]1C2 [Compound 49]
- BIOCHEMICAL FRET BASED ASSAY pIC50 (BACE1): 8.81
- CELLULAR αLISA ASSAY IN SKNBE2 CELLS ABETA 42 PIC50 [1]: 8.56
- BIOCHEMICAL FRET BASED ASSAY pIC50 (BACE2): 8.43
